Assay results published in ChEMBL document CHEMBL2406972, “Synthesis and antitumor activities of novel dibenzo[b,d]furan-imidazole hybrid compounds” (Eur J Med Chem, 2013).

Assays:
SMMC-7721 [1] = assay: Induction of apoptosis in human SMMC7721 cells assessed as viable cells at 6 uM after 48 hrs using by V-FITC/PI double-staining assay (reference value: 92.9%); format: functional; conditions: SMMC-7721, 48 h, read-out: Activity
A549 = assay: Cytotoxicity against human A549 cells after 48 hrs by MTT assay; format: functional, cell-based; conditions: A549, 48 h
HL-60 = assay: Cytotoxicity against human HL60 cells after 48 hrs by MTT assay; format: functional, cell-based; conditions: HL-60, 48 h
SMMC-7721 [2] = assay: Induction of apoptosis in human SMMC7721 cells at 3 uM after 48 hrs using by V-FITC/PI double-staining assay (reference value: 2.73 +/- 0.69%); format: functional
SMMC-7721 [3] = assay: Cell cycle arrest in human SMMC7721 cells assessed as accumulation at S phase at 3 uM after 24 hrs using PI staining by flow cytometry (reference value: 24.41%); format: functional
MCF7 = assay: Cytotoxicity against human MCF7 cells after 48 hrs by MTT assay; format: functional, cell-based; conditions: MCF7, 48 h
SMMC-7721 [4] = assay: Induction of apoptosis in human SMMC7721 cells at 9 uM after 48 hrs using by V-FITC/PI double-staining assay (reference value: 2.73 +/- 0.69%); format: functional
SMMC-7721 [5] = assay: Cell cycle arrest in human SMMC7721 cells assessed as accumulation at G2/M phase at 3 uM after 24 hrs using PI staining by flow cytometry (reference value: 12.84%); format: functional
SMMC-7721 [6] = assay: Cell cycle arrest in human SMMC7721 cells assessed as accumulation at G2/M phase at 6 uM after 24 hrs using PI staining by flow cytometry (reference value: 12.84%); format: functional
SMMC-7721 [7] = assay: Induction of apoptosis in human SMMC7721 cells assessed as late apoptotic cells at 3 uM after 48 hrs using by V-FITC/PI double-staining assay (reference value: 0.481%); format: functional
SMMC-7721 [8] = assay: Induction of apoptosis in human SMMC7721 cells assessed as necrotic cells at 6 uM after 48 hrs using by V-FITC/PI double-staining assay (reference value: 4.90%); format: functional
SMMC-7721 [9] = assay: Induction of apoptosis in human SMMC7721 cells assessed as necrotic cells at 3 uM after 48 hrs using by V-FITC/PI double-staining assay (reference value: 4.90%); format: functional
SMMC-7721 [10] = assay: Cell cycle arrest in human SMMC7721 cells assessed as accumulation at G1 phase at 6 uM after 24 hrs using PI staining by flow cytometry (reference value: 60.29%); format: functional
SMMC-7721 [11] = assay: Cytotoxicity against human SMMC7721 cells after 48 hrs by MTT assay; format: functional, cell-based; conditions: SMMC-7721, 48 h
SMMC-7721 [12] = assay: Induction of apoptosis in human SMMC7721 cells at 6 uM after 48 hrs using by V-FITC/PI double-staining assay (reference value: 2.73 +/- 0.69%); format: functional
SMMC-7721 [13] = assay: Induction of apoptosis in human SMMC7721 cells assessed as early apoptotic cells at 9 uM after 48 hrs using by V-FITC/PI double-staining assay (reference value: 1.76%); format: functional
SMMC-7721 [14] = assay: Induction of apoptosis in human SMMC7721 cells assessed as necrotic cells at 9 uM after 48 hrs using by V-FITC/PI double-staining assay (reference value: 4.90%); format: functional
SW480 = assay: Cytotoxicity against human SW480 cells after 48 hrs by MTT assay; format: functional, cell-based; conditions: SW480, 48 h
SMMC-7721 [15] = assay: Induction of apoptosis in human SMMC7721 cells assessed as late apoptotic cells at 9 uM after 48 hrs using by V-FITC/PI double-staining assay (reference value: 0.481%); format: functional
SMMC-7721 [16] = assay: Induction of apoptosis in human SMMC7721 cells assessed as early apoptotic cells at 3 uM after 48 hrs using by V-FITC/PI double-staining assay (reference value: 1.76%); format: functional
SMMC-7721 [17] = assay: Cell cycle arrest in human SMMC7721 cells assessed as accumulation at G1 phase after 24 hrs using PI staining by flow cytometry; format: functional, cell-based
SMMC-7721 [18] = assay: Induction of apoptosis in human SMMC7721 cells assessed as early apoptotic cells at 6 uM after 48 hrs using by V-FITC/PI double-staining assay (reference value: 1.76%); format: functional
SMMC-7721 [19] = assay: Induction of apoptosis in human SMMC7721 cells assessed as viable cells at 3 uM after 48 hrs using by V-FITC/PI double-staining assay (reference value: 92.9%); format: functional; conditions: SMMC-7721, 48 h, read-out: Activity
SMMC-7721 [20] = assay: Cell cycle arrest in human SMMC7721 cells assessed as accumulation at G1 phase at 3 uM after 24 hrs using PI staining by flow cytometry (reference value: 60.29%); format: functional
SMMC-7721 [21] = assay: Induction of apoptosis in human SMMC7721 cells assessed as late apoptotic cells at 6 uM after 48 hrs using by V-FITC/PI double-staining assay (reference value: 0.481%); format: functional
SMMC-7721 [22] = assay: Cell cycle arrest in human SMMC7721 cells assessed as accumulation at S phase at 6 uM after 24 hrs using PI staining by flow cytometry (reference value: 24.41%); format: functional
SMMC-7721 [23] = assay: Induction of apoptosis in human SMMC7721 cells assessed as viable cells at 9 uM after 48 hrs using by V-FITC/PI double-staining assay (reference value: 92.9%); format: functional; conditions: SMMC-7721, 48 h, read-out: Activity

O=C(C[n+]1cn(C(c2ccccc2)c2ccc3oc4ccccc4c3c2)c2ccccc21)c1ccc2ccccc2c1.[Br-] (configuration not stated)
viability at 6 µM (SMMC-7721 [1]): 53.4% | IC50 (A549): 3.54 µM | IC50 (HL-60): 0.93 µM | Activity (SMMC-7721 [2]): 7.6% | Activity (SMMC-7721 [3]): 26.8% | IC50 (MCF7): 1.04 µM | Activity (SMMC-7721 [4]): 50.8% | Activity (SMMC-7721 [5]): 4.96% | Activity (SMMC-7721 [6]): 0.75% | Activity (SMMC-7721 [7]): 5.37% | Activity (SMMC-7721 [8]): 4.21% | Activity (SMMC-7721 [9]): 1.06% | Activity (SMMC-7721 [10]): 80.14% | IC50 (SMMC-7721 [11]): 2.86 µM | Activity (SMMC-7721 [12]): 43.6% | Activity (SMMC-7721 [13]): 11.9% | Activity (SMMC-7721 [14]): 8.76% | IC50 (SW480): 3.59 µM | Activity (SMMC-7721 [15]): 40.1% | Activity (SMMC-7721 [16]): 3.46% | Activity (SMMC-7721 [17]): Dose-dependent effect | Activity (SMMC-7721 [18]): 28.6% | viability at 3 µM (SMMC-7721 [19]): 90.1% | Activity (SMMC-7721 [20]): 67.74% | Activity (SMMC-7721 [21]): 13.8% | Activity (SMMC-7721 [22]): 17.8% | viability at 9 µM (SMMC-7721 [23]): 39.2%

Cc1n(C(C)c2ccc3oc4ccccc4c3c2)cc[n+]1CC(=O)c1ccccc1 (configuration not stated)
IC50 (A549): 17.9 µM | IC50 (HL-60): 2.85 µM | IC50 (MCF7): 4.49 µM | IC50 (SMMC-7721 [11]): 3.02 µM | IC50 (SW480): 10.1 µM

O=[N+]([O-])c1ccc(C[n+]2ccn(C(c3ccccc3)c3ccc4oc5ccccc5c4c3)c2)cc1 (configuration not stated)
IC50 (A549): 28.6 µM | IC50 (HL-60): 10.8 µM | IC50 (MCF7): 10.3 µM | IC50 (SMMC-7721 [11]): 15.3 µM | IC50 (SW480): 19.1 µM

O=C(C[n+]1ccn(C(c2ccccc2)c2ccc3oc4ccccc4c3c2)c1)c1ccc(O)cc1 (configuration not stated)
IC50 (A549): 6.8 µM | IC50 (HL-60): 2.61 µM | IC50 (MCF7): 7.05 µM | IC50 (SMMC-7721 [11]): 6.28 µM | IC50 (SW480): 15.2 µM

O=C(C[n+]1cn(C(c2ccccc2)c2ccc3oc4ccccc4c3c2)c2ccccc21)c1ccc(Br)cc1 (configuration not stated)
IC50 (A549): 3.8 µM | IC50 (HL-60): 2.1 µM | IC50 (MCF7): 2.91 µM | IC50 (SMMC-7721 [11]): 3.36 µM | IC50 (SW480): 3.83 µM

CC(c1ccc2oc3ccccc3c2c1)n1ccnc1 (configuration not stated)
IC50 (A549): > 40 µM | IC50 (HL-60): > 40 µM | IC50 (MCF7): > 40 µM | IC50 (SMMC-7721 [11]): > 40 µM | IC50 (SW480): > 40 µM

CCCC[n+]1ccn(C(c2ccccc2)c2ccc3oc4ccccc4c3c2)c1 (configuration not stated)
IC50 (A549): 11.4 µM | IC50 (HL-60): 1.1 µM | IC50 (MCF7): 6.03 µM | IC50 (SMMC-7721 [11]): 8.13 µM | IC50 (SW480): 13.1 µM

CC(c1ccc2oc3ccccc3c2c1)n1c[n+](CC(=O)c2ccccc2)c2ccccc21 (configuration not stated)
IC50 (A549): 18.1 µM | IC50 (HL-60): 2.46 µM | IC50 (MCF7): 12.5 µM | IC50 (SMMC-7721 [11]): 8.51 µM | IC50 (SW480): 14.6 µM

O=C(C[n+]1ccn(C(c2ccccc2)c2ccc3oc4ccccc4c3c2)c1)c1ccc(F)cc1 (configuration not stated)
IC50 (A549): 10.2 µM | IC50 (HL-60): 3 µM | IC50 (MCF7): 4 µM | IC50 (SMMC-7721 [11]): 14.5 µM | IC50 (SW480): 5.16 µM

Cc1n(C(c2ccccc2)c2ccc3oc4ccccc4c3c2)cc[n+]1CC(=O)c1ccc(O)cc1 (configuration not stated)
IC50 (A549): 26.2 µM | IC50 (HL-60): 3.92 µM | IC50 (MCF7): 11.8 µM | IC50 (SMMC-7721 [11]): 8.84 µM | IC50 (SW480): 14.3 µM

O=C(c1ccccc1)C(c1ccccc1)[n+]1ccn(C(c2ccccc2)c2ccc3oc4ccccc4c3c2)c1 (configuration not stated)
IC50 (A549): 3.75 µM | IC50 (HL-60): 0.52 µM | IC50 (MCF7): 1.46 µM | IC50 (SMMC-7721 [11]): 2.38 µM | IC50 (SW480): 2.36 µM

CC(c1ccc2oc3ccccc3c2c1)n1cc[n+](CC(=O)c2ccc(Br)cc2)c1 (configuration not stated)
IC50 (A549): 13.7 µM | IC50 (HL-60): 2.95 µM | IC50 (MCF7): 4.08 µM | IC50 (SMMC-7721 [11]): 11 µM | IC50 (SW480): 6.85 µM

O=C(C[n+]1ccn(C(c2ccccc2)c2ccc3oc4ccccc4c3c2)c1)c1ccccc1 (configuration not stated)
IC50 (A549): 17.7 µM | IC50 (HL-60): 2.14 µM | IC50 (MCF7): 6.29 µM | IC50 (SMMC-7721 [11]): 11.4 µM | IC50 (SW480): 9.05 µM

CCCC[n+]1ccn(C(c2ccccc2)c2ccc3oc4ccccc4c3c2)c1C (configuration not stated)
IC50 (A549): 21.4 µM | IC50 (HL-60): 3.81 µM | IC50 (MCF7): 11.9 µM | IC50 (SMMC-7721 [11]): 13.1 µM | IC50 (SW480): 28.4 µM

O=C(C[n+]1cn(C(c2ccccc2)c2ccc3oc4ccccc4c3c2)c2ccccc21)c1ccc(F)cc1 (configuration not stated)
IC50 (A549): 12.1 µM | IC50 (HL-60): 2.18 µM | IC50 (MCF7): 1.87 µM | IC50 (SMMC-7721 [11]): 3.57 µM | IC50 (SW480): 3.6 µM

CC(c1ccc2oc3ccccc3c2c1)n1c[n+](C(C(=O)c2ccccc2)c2ccccc2)c2ccccc21 (configuration not stated)
IC50 (A549): 12.7 µM | IC50 (HL-60): 2.79 µM | IC50 (MCF7): 9.35 µM | IC50 (SMMC-7721 [11]): 5.4 µM | IC50 (SW480): 10.5 µM

O=C(C[n+]1ccn(C(c2ccccc2)c2ccc3oc4ccccc4c3c2)c1)c1ccc(Br)cc1 (configuration not stated)
IC50 (A549): 7.7 µM | IC50 (HL-60): 2.13 µM | IC50 (MCF7): 3.32 µM | IC50 (SMMC-7721 [11]): 10.8 µM | IC50 (SW480): 2.11 µM

Cc1n(C(c2ccccc2)c2ccc3oc4ccccc4c3c2)cc[n+]1CC(=O)c1ccc2ccccc2c1 (configuration not stated)
IC50 (A549): 3.78 µM | IC50 (HL-60): 0.98 µM | IC50 (MCF7): 2.31 µM | IC50 (SMMC-7721 [11]): 2.57 µM | IC50 (SW480): 2.62 µM

CCCC[n+]1cn(C(C)c2ccc3oc4ccccc4c3c2)c2ccccc21 (configuration not stated)
IC50 (A549): 8.55 µM | IC50 (HL-60): 1.67 µM | IC50 (MCF7): 9.41 µM | IC50 (SMMC-7721 [11]): 3.78 µM | IC50 (SW480): 11.1 µM
